Test [1] has as its target Jack bean (Canavalia ensiformis) urease (Canavalia ensiformis (Jack bean) (Dolichos ensiformis), UniProt P07374). As to the kind of experiment: biochemical. Type of test: biochemical. The note with it: for urease inhibitory activity compared with standard thiourea: in words. As for the experimental part: The Schiff bases of thiazoles were evaluated for their urease inhibitory potential by using the following protocol:
Finally the results were processed by software SoftMax Pro (Molecular Devices, CA, USA), MS-Excel and Ez-fit. The Percent inhibition was calculated from the formula given below: 100−(OD of test compound/OD of control)×100
The IC50 values were then calculated using the EZ-Fit Enzyme Kinetics program (Perrella Scientific Inc., Amherst, U.S.A.).

Test [2] deals with jack bean urease (Canavalia ensiformis (Jack bean) (Dolichos ensiformis), UniProt P07374). As to the kind of experiment: biochemical. It counts as biochemical. Set-up: Vmax / Vmaxapp: unit not given here. The note with it: for Type of Inhibition: from Lineweaver-Burk plot; for Vmaxapp / Kmapp: in presence of inhibitor; for Kmapp / Km: substrate urea; for Km / Vmax: without inhibitor. As for the experimental part: The Lineweaver-Burk plot was used to determine the type of inhibition, while Dixon plot and secondary replete were used for the determination of dissociation constants (Ki). The Ki, Km, and Vmax were determined by non-linear regression equation. The Ki value was determined from lineweaver-Burk plot. For the calculation of Ki values, initially the 1/Vmaxapp values were determine on y-axis of lineweaver-Burk plot at each junction point of lines of every inhibitor concentration. Secondly the slope of the inhibitor at concentration of each line were determined on Lineweaver-Burk plot and re-plotted against the inhibitor concentrations.
Graphs were plotted using GraFit program. Values of the correlation coefficients, slopes, intercepts, and their standard errors were obtained by the linear regression analysis using the same program. Each point in the constructed graphs represents the mean of the three experiments.
In mixed-type of inhibition, both Km and Vmax are affected.
Three different methods were applied to determine the type of inhibition and Ki values for these inhibitors. Firstly by using Lineweaver-Burk plots the reciprocal of the rate of the reaction were plotted against the reciprocal of substrate concentration to monitor the effect of inhibitor on both Km and Vmax. Secondly the secondary replots of Lineweaver-Burk plots were plotted to determine the Ki value. The Ki values were calculated by plotting the slope of each line in the Lineweaver-Burk plots against the different concentration of inhibitors.

The mark [3] stands for this setting: Jack bean urease, pH 6.8, 100 mM urea, 30° C., 15 min, read-out: IC50 ± SEM.
The mark [4] stands for this setting: Table 2, jack bean urease, read-out: IC50.
The mark [5] stands for this setting: mean of triplicate, read-out: Ki ± S.E.M.

Entries after “also recorded” stand apart in the source; their conditions may differ. Where two headings read alike, the source gives them in different places.

We go through 23 compounds from patent US9447057B2, “Schiff bases of thiazoles: a new class of ureases inhibitors” (priority 2014, dated 2016).

With “N-[4-(Methylsulfanyl) phenyl]methylidene}-N- (4-phenyl-1,3-thiazol-2- yl)amine [Compound 18]”, the IC50 (usually the point on the concentration scale where inhibition reaches its midpoint) in test [1] (setting [3]) amounted to 6.96 ± 0.054 µM.

Consider “N-[2,6-Dichloro- phenyl)methylidene]-N-(4- phenyl-1,3-thiazol- 2-yl)amine [Compound 25]”, for which, in test [1] (setting [3]), the IC50 was 22.33 ± 0.11 µM. For the same compound, the “urease inhibitory activity compared with standard thiourea” value in test [1] was “significant urease inhibitory activity, comparable to standard”.

As for “N-[4-Chlorophenyl) methylidene]-N-(4-phenyl- 1,3-thiazol-2-yl)amine [Compound 26]”, the IC50 in test [1] (setting [3]) worked out at 19 ± 0.04 µM.

As for “N-[4-Methoxyphenyl) methylidene]-N-(4- phenyl-1,3-thiazol-2- yl)amine [Compound 13]”, the “urease inhibitory activity compared with standard thiourea” value in test [1] was “significant urease inhibitory activity, comparable to standard”.

Consider `Oc1ccc(Cl)cc1C=Nc1nc(-c2ccccc2)cs1` [Compound 8, 4-Chloro-2-{[(4-phenyl-1,3-thiazol-2-yl)imino]methyl} phenol], for which, in test [2], the Ki (as a rule, the equilibrium dissociation constant of an inhibitor or competing ligand from its target) is 7.89 ± 0.0142 µM. In addition, the 50% inhibitory concentration (IC50) stood at 8.13 ± 0.02 µM in test [1] (setting [3]) and 8.1 µM in test [1] (setting [4]).

`C(=Nc1nc(-c2ccccc2)cs1)c1c[nH]c2ccccc12` [Compound 2, N-[1H-indol-3-yl-methylidene]-N-(4-phenyl-1,3-thiazol-2-yl)amine] registered a Ki in test [2] of 9.6 ± 0.0024 µM. Besides, the IC50 in test [1] (setting [3]) was 8.56 ± 0.027 µM; in test [1] (setting [4]) it was 8.5 µM.

On to `Oc1ccccc1C=Nc1nc(-c2ccccc2)cs1` [Compound 16, 2-{[(4-Phenyl-1,3-thiazol-2-yl)imino]methyl} phenol], for which the IC50 in test [1] (setting [3]) is 12.4 ± 0.14 µM.

“N-[4-Ethoxyphenyl)methyl- idene]-N-(4-phenyl-1,3- thiazol-2-yl)amine [Compound 4]”: in test [2], the “Type of Inhibition” value is “mixed-type; also recorded: Mixed inhibition”; the Vmaxapp is on record as 12.85; the Kmapp is listed as 2.56 mM; the Michaelis-Menten constant (Km) – broadly, the substrate concentration at which the rate is half of its maximum – is 2250 µM. For the same compound, in test [2], the Vmax amounted to 23.47. For the same compound, the Ki in test [2] (setting [5]) is 9.23 ± 0.018 µM. In addition, the IC50 in test [1] (setting [4]) turned out to be 11.2 µM.

As to `C(=Nc1nc(-c2ccccc2)cs1)c1cccc2ccccc12` [Compound 21, N-[1-Naphthyl-methylidene]-N-(4-phenyl-1,3-thiazol-2-yl)amine], the half-maximal inhibitory concentration (IC50) in test [1] (setting [3]) stood at 23.06 ± 0.11 µM.

Consider “N-(4-Phenyl-1,3- thiazol-2-yl)-N-[4- pyridinylmethyl- idene]amine [Compound 5]”, for which, in test [2], the “Type of Inhibition” value is “Competitive inhibition”, the Vmaxapp came out at 23.5, the Kmapp is reported as 5.09 mM and the Michaelis-Menten constant (Km) was 2250 µM. Also, the Vmax in test [2] turned out to be 21.64. Moreover, the Ki in test [2] (setting [5]) was 13.6 ± 0.0123 µM. Also, the concentration for half-maximal inhibition (IC50) in test [1] (read-out: IC50) was 7.6 µM. For the same compound, in test [1] (read-out: IC50 ± SEM), the IC50 was found to be 7.6 ± 0.08 µM.

Consider “N-[2-Naphthylmethyl- idene]-N-(4-phenyl- 1,3-thiazol-2-yl)amine [Compound 7]”, for which, in test [2], the “Type of Inhibition” value was “Competitive inhibition”, the Vmaxapp was found to be 29, the Kmapp was found to be 6.28 mM and the Km was 2250 µM. In addition, the Vmax in test [2] amounted to 28.8. In test [2] (setting [5]), the Ki came to 11.89 ± 0.004 µM. In test [1] (setting [3]), the IC50 stood at 9.33 ± 0.02 µM. The IC50 in test [1] (setting [4]) was determined as 9.33 µM.

`CCOc1cccc(C=Nc2nc(-c3ccccc3)cs2)c1O` [Compound 3, 2-Ethoxy-6-{[(4-phenyl-1,3-thiazol-2-yl)imino]methyl}phenol] displayed a Ki in test [2] of 9.7 ± 0.007 µM. Moreover, the IC50 in test [1] (IC50) was 7.9 µM; in test [1] (IC50 ± SEM), 7.9 ± 0.08 µM.

For the compound `NC(N)=S` [Thiourea, reference compound], in test [2], the “Type of Inhibition” value was “Competitive inhibition”, the Kmapp came out at 7.38 mM and the Michaelis constant (Km) was found to be 2250 µM. For the same compound, the Ki in test [2] (setting [5]) stood at 20.01 ± 0.02 µM.

Consider `Oc1cccc(C=Nc2nc(-c3ccccc3)cs2)c1O` [Compound 23, 3-{[(4-Phenyl-1,3-thiazol-2-yl)imino]methyl}-1,2-benzenediol], for which the IC50 in test [1] (IC50 ± SEM) came to 19.63 ± 0.19 µM.

In the case of “N-[4-Isopropylphenyl) methylidene]-N-(4- phenyl-1,3-thiazol-2- yl)amine [Compound 9]”, in test [2], the “Type of Inhibition” value is “mixed-type; also recorded: Mixed inhibition”, the Vmaxapp is listed as 8.72, the Kmapp turned out to be 3.22 mM and the Michaelis-Menten constant (Km) stood at 2200 µM. In addition, the Vmax in test [2] amounted to 19. For the same compound, the inhibition constant Ki in test [2] (setting [5]) worked out at 12.39 ± 0.0168 µM. For the same compound, the half-maximal inhibitory concentration (IC50) in test [1] (setting [3]) came to 14.5 ± 0.16 µM. For the same compound, the IC50 in test [1] (setting [4]) stood at 14.5 µM.

With “N-[Phenylmethyl- idene]-N-(4-phenyl- 1,3-thiazol-2-yl) amine [Compound 19]”, the half-inhibitory concentration (IC50) in test [1] (setting [3]) was found to be 16.76 ± 0.054 µM.

As for “N-[4-Nitrophenyl)methyl- idene]-N-(4-phenyl-1,3- thiazol-2-yl)amine [Compound 11]”, in test [1] (setting [3]), the half-inhibitory concentration (IC50) was found to be 32.5 ± 0.02 µM. Moreover, the “urease inhibitory activity compared with standard thiourea” value in test [1] is given as “significant urease inhibitory activity, comparable to standard”.

In test [2], `Cc1ccc(C=Nc2nc(-c3ccccc3)cs2)o1` [Compound 10, N-[(5-Methyl-2-furyl)methylidene]-N-(4-phenyl-1,3-thiazol-2-yl)amine] showed a Ki of 14.82 ± 0.0109 µM. The concentration for half-maximal inhibition (IC50) is 17.83 ± 0.07 µM in test [1] (setting [3]) and 17.8 µM in test [1] (setting [4]).

Regarding `Oc1ccc(C=Nc2nc(-c3ccccc3)cs2)cc1` [Compound 12, 4-{[(4-Phenyl-1,3-thiazol-2-yl)imino]methyl}phenol], 20.16 ± 0.07 µM corresponded to half-maximal inhibition in test [1] (IC50 ± SEM) (IC50).

`COc1cccc(C=Nc2nc(-c3ccccc3)cs2)c1O` [Compound 6, 2-Methoxy-6-{[(4-phenyl-1,3-thiazol-2-yl)imino]methyl} phenol] gave an inhibition constant Ki in test [2] of 8.22 ± 0.0233 µM. In test [1] (IC50), the IC50 is 8.8 µM.

“N-[2-Chloro- phenyl)methylidene]- N-(4-phenyl-1,3- thiazol-2-yl) amine [Compound 20]”: in test [1] (setting [3]), the IC50 came out at 13.03 ± 0.02 µM.

With “N-[2-Fluorophenyl) methylidene]-N- (4-phenyl-1,3- thiazol-2-yl)amine [Compound 22]”, the IC50 in test [1] (setting [3]) was found to be 17.93 ± 0.07 µM.

As to “N-[4-(Dimethylamino) phenyl]methylidene}-N- (4-phenyl-1,3-thiazol-2- yl)amine [Compound 14]”, in test [1] (setting [3]), the concentration for half-maximal inhibition (IC50) is 20.36 ± 0.11 µM.
